The nature of one data set: Cytotoxicity assay. It counts as cell-based, human. The settings on record: human, HEK293 human embryonic kidney cells, concentration at 50% cytotoxicity on HEK293 cells; mean (n = 2). As to the method:
Cytotoxicity assays were conducted using the protocols previously reported.

Data set [1] concerns S. aureus (ATCC 25,923 or ATCC 29213). Nature of the data set: Antimicrobial MIC, S. aureus. In kind it is cell-based, Staphylococcus aureus. To be noted: Staphylococcus aureus, mean (n = 3). As to the method: (§1) The susceptibility of bacterial strains S. aureus (ATCC 25,923 or 29213), E. coli (ATCC 25922), and P. aeruginosa (ATCC 27853) to antibiotics and compounds was determined according to previously reported protocols. Additional antimicrobial evaluation against MRSA (ATCC 43300), Klebsiella pneumoniae (ATCC 700603), Acinetobacter baumannii (ATCC 19606), Candida albicans (ATCC 90028), and Cryptococcus neoformans (ATCC 208821) was undertaken at the Community for Open Antimicrobial Drug Discovery at The University of Queensland (Australia) according to their standard protocols as reported previously.

Data set [2] deals with K. pneumoniae (ATCC 700603). Nature of the data set: Antimicrobial MIC, K. pneumoniae. It counts as cell-based. To be noted: Klebsiella pneumoniae, ATCC700603, mean (n = 2). How it is done:
as §1

In data set [3] the test system is E. coli (ATCC 25922). Nature of the data set: Antimicrobial MIC, E. coli. In kind it is cell-based, Escherichia coli. To be noted: Escherichia coli, ATCC25922, E. coli (ATCC 25922); mean (n = 2). How it is done:
as §1

The subject of a further data set is MRSA (ATCC 43300). Nature of the data set: Antimicrobial MIC, MRSA. It counts as cell-based, methicillin-resistant Staphylococcus aureus. To be noted: Staphylococcus aureus, read-out: MIC MRSA. As to the method: as §1
Data set [4] deals with P. aeruginosa (ATCC 27853). Briefly: Enhancement of doxycycline activity. To be noted: for Dox/P.a: concentration required to restore doxycycline activity (combination MIC): doxycycline fixed at 4.5 µM (2 µg/mL); for Dox/P.a: concentration required to restore doxycycline activity (combination MIC) / Concentration of test compound required to restore doxycycline activity: P. aeruginosa (ATCC 27853); for Dox/P.a fold change: ratio between intrinsic MIC of test compound and combination MIC, doxycycline 4.5 µM, P. aeruginosa. It counts as cell-based, Pseudomonas aeruginosa.

Data set [5] has as its system C. neoformans (ATCC 208821). Nature of the data set: Antifungal MIC, C. neoformans. In kind it is cell-based, Cryptococcus neoformans. To be noted: Cryptococcus neoformans, ATCC208821, C. neoformans (ATCC 208821); mean (n = 2). As to the method:
as §1

The test system of another data set is C. albicans (ATCC 90028). Briefly: Antifungal MIC, C. albicans. It counts as cell-based. To be noted: Candida albicans, ATCC90028, mean (n = 2). How it is done: as §1
In data set [6] the test system is P. aeruginosa (PAO1 or ATCC 27853). Briefly: Antimicrobial MIC, P. aeruginosa. To be noted: Pseudomonas aeruginosa. In kind it is cell-based. How it is done: as §1
Data set [7] relates to A. baumannii (ATCC 19606). Briefly: Antimicrobial MIC, A. baumannii. To be noted: Acinetobacter baumannii, ATCC19606, A. baumannii (ATCC 19606); mean (n = 2). It counts as cell-based, Acinetobacter baumannii. How it is done:
as §1

For data set [8], the system named is E. coli (ATCC 25922). Nature of the data set: Enhancement of erythromycin activity. In kind it is cell-based, Escherichia coli. As to the method:
Restoring enhancer concentrations were determined using previously reported protocols.

The test system of the next data set is human red blood cells. Nature of the data set: Hemolytic assay. In kind it is cell-based. To be noted: concentration at 10% hemolytic activity on human red blood cells; mean (n = 2). How it is done: Hemolysis assays were conducted using the protocols previously reported.
Setting [9] is: MRSA (ATCC 43300), mean (n = 2).
The mark [10] stands for this setting: P. aeruginosa (PAO1 or ATCC 27853), mean (n = 3), read-out: MIC P. a.

Molecules are shown by their SMILES. pIC50: −log10 of the molar value. Converted amounts (≈) assume the structure as drawn. “And” between values parts separate entries of the source, which are not always exact repeats. Equal entries are not always repeated. Where two headings read alike, the source gives them in different places. Some results are limits rather than exact numbers.

For `CC/C(=C(\c1ccccc1)c1ccc(OCCN(C)C)cc1)c1ccccc1` [tamoxifen, reference compound], in “Cytotoxicity assay”, the pIC50 is 4.62.

With `O=C(CCC(=O)Nc1cccc2ccccc12)NCCCNCCCCNCCCNC(=O)CCC(=O)Nc1cccc2ccccc12.O=C(O)C(F)(F)F.O=C(O)C(F)(F)F` [Compound 18a, N^1,N^4-Bis(3-(4-(naphthalen-1-ylamino)-4-oxobutanamido)propyl)butane-1,4-diaminium 2,2,2-trifluoroacetate], the minimal inhibitory concentration (MIC) in [1] is 568 µM; in data set [2], greater than 36.3 µM; against E. coli (ATCC 25922) [3], 568 µM; in the data set with MRSA (ATCC 43300) (setting [9]), greater than 36.3 µM; in data set [5], greater than 36.3 µM; against C. albicans (ATCC 90028), greater than 36.3 µM. Moreover, the MIC is 568 µM in data set [6] (setting [10]) and greater than 36.3 µM in data set [7]. Besides, in [4], the “Dox/P.a: concentration required to restore doxycycline activity (combination MIC)” value was found to be 568 µM. In addition, the Dox/P.a fold change in data set [4] was found to be 1 fold. For the same compound, the “Eryth/E.c: concentration required to restore erythromycin activity (combination MIC)” value in the data set on E. coli (ATCC 25922) [8] (erythromycin fixed at 10.9 µM (8 µg/mL), E. coli (ATCC 25922)) is listed as 568 µM. For the same compound, in the data set on E. coli (ATCC 25922) [8] (ratio between intrinsic MIC of test compound and combination MIC, erythromycin 10.9 µM, E. coli), the Eryth/E.c fold change is 1 fold.

`OC(Cn1cncn1)(Cn1cncn1)c1ccc(F)cc1F` [fluconazole, reference compound]: the MIC amounted to 26 µM (≈ 7.96 µg/mL) in [5] and 0.4 µM (≈ 0.123 µg/mL) against C. albicans (ATCC 90028).

Regarding `[H]/N=C(/N)N[C@H]1[C@H](O)[C@@H](O)[C@H](O[C@@H]2O[C@@H](C)[C@](O)(C=O)[C@H]2O[C@@H]2O[C@@H](CO)[C@H](O)[C@@H](O)[C@@H]2NC)[C@@H](N/C(N)=N\[H])[C@@H]1O` [streptomycin, reference compound], the MIC in data set [1] and in [6] (setting [10]) was 21.5 µM (≈ 12.5 µg/mL) in each case.

As to `CN[C@H](CC(C)C)C(=O)N[C@H]1C(=O)N[C@@H](CC(N)=O)C(=O)N[C@H]2C(=O)N[C@H]3C(=O)N[C@H](C(=O)N[C@H](C(=O)O)c4cc(O)cc(O)c4-c4cc3ccc4O)[C@H](O)c3ccc(c(Cl)c3)Oc3cc2cc(c3O[C@@H]2O[C@H](CO)[C@@H](O)[C@H](O)[C@H]2O[C@H]2C[C@](C)(N)[C@H](O)[C@H](C)O2)Oc2ccc(cc2Cl)[C@H]1O` [vancomycin, reference compound], the MIC in the data set with MRSA (ATCC 43300) amounted to 0.7 µM (≈ 1.01 µg/mL).

Regarding `O=C(CCC(=O)Nc1ccc2ccccc2c1)NCCCNCCCCNCCCNC(=O)CCC(=O)Nc1ccc2ccccc2c1.O=C(O)C(F)(F)F.O=C(O)C(F)(F)F` [Compound 20a, N^1,N^4-Bis(3-(4-(naphthalen-2-ylamino)-4-oxobutanamido)propyl)butane-1,4-diaminium 2,2,2-trifluoroacetate], the MIC in [1] was 57 µM; in [2], greater than 36.3 µM; in the data set with E. coli (ATCC 25922) [3], 227 µM; in the data set with MRSA (ATCC 43300) (setting [9]), 18.2 µM; in [5], greater than 36.3 µM; with C. albicans (ATCC 90028) it was greater than 36.3 µM. Also, the MIC in data set [6] (setting [10]) was 568 µM; in data set [7], greater than 36.3 µM. Also, in the data set with human red blood cells, the “Hemolysis HC10” value is recorded as greater than 36.3 µM. Moreover, the “Concentration of test compound required to restore doxycycline activity” value in [4] (doxycycline concentration 2 µg/mL) is reported as 28.4 µM; in data set [4] (doxycycline concentration 4 µg/mL) it was 14.2 µM; in data set [4] (doxycycline concentration 6 µg/mL), 14.2 µM; in data set [4] (doxycycline concentration 8 µg/mL) it was 3.5 µM. In addition, the “Dox/P.a: concentration required to restore doxycycline activity (combination MIC)” value in [4] stood at 28 µM. In addition, the Dox/P.a fold change in [4] is 20 fold. The compound also had a negative-log IC50 (pIC50) in “Cytotoxicity assay” of less than 4.44.

As for `O=C(N[C@H](CO)[C@H](O)c1ccc([N+](=O)[O-])cc1)C(Cl)Cl` [chloramphenicol, reference compound], the MIC in data set [1] lay in the range of 1.5 to 3 µM (≈ 0.485 to 0.969 µg/mL).

As to `C[C@H]1c2cccc(O)c2C(=O)C2=C(O)[C@]3(O)C(=O)C(C(N)=O)=C(O)[C@@H](N(C)C)[C@@H]3[C@@H](O)[C@@H]21` [doxycycline, reference compound], the MIC in [6] (antibiotic alone, P. aeruginosa, read-out: intrinsic MIC against P. aeruginosa) is 40 µg/mL and 90 µM.

The record behind these values is PMC10294832, “Investigation of Naphthyl–Polyamine Conjugates as Antimicrobials and Antibiotic Enhancers” (Antibiotics, 2023).
